According to ChEMBL document CHEMBL1121849, “Synthetic antagonists of in vivo antidiuretic and vasopressor responses to arginine-vasopressin” (J Med Chem, 1981):
Starred links: 1 amine or outer side, 2 acyl side, 3 side chain; linkers in the order of their positions; H or OH if unused. Positions of bridges follow the written chain, without caps; N, C: chain ends. Non-standard residues stand in square brackets, D forms with d. Residues, ends and D or L forms follow the SMILES beside them. *: point of attachment. X1 = O=C(CC1(S[*:2])CCCCC1)[*:1]; iPr = CC(C)*

Key:
Rattus norvegicus [1] = assay: Tested in vivo for antidiuretic potency injected intraperitoneally in rats under ethanol anesthesia; format: ADME, organism-based, Urine; details: ip
[2] = In vivo antidiuretic antagonistic activity expressed as negative logarithm of the effective dose divided by the estimated volume of distribution (67 mL/kg).; format: ADME, organism-based; details: Urine; read-out: pA2 (converted)
Rattus norvegicus [3] = assay: In vivo anti-vasopressor antagonistic activity expressed as negative logarithm of the effective dose divided by the estimated volume of distribution (67 mL/kg).; format: ADME, organism-based; details: read-out: pA2 (converted)
Rattus norvegicus [4] = assay: Tested in vivo for anti-vasopressor potency injected intraperitoneally in phenoxybenzamine-treated rats under urethane anesthesia; format: functional

Compound	ED (Rattus norvegicus [1]) [nM/kg]	Kb [2] [nM]	Kb (Rattus norvegicus [3]) [nM]	ED (Rattus norvegicus [4]) [nM/kg]
CCCOc1ccc(C[C@@H]2NC(=O)CC3(CCCCC3)SSC[C@@H](C(=O)N3CCC[C@H]3C(=O)N[C@@H](CCCN=C(N)N)C(=O)NCC(N)=O)NC(=O)[C@H](CC(N)=O)NC(=O)[C@H](C(C)C)NC(=O)[C@H](Cc3ccccc3)NC2=O)cc1 [listing 1 of 2 here]	3.5	51.3	6.03	
CCCOc1ccc(C[C@@H]2NC(=O)CC3(CCCCC3)SSC[C@@H](C(=O)N3CCC[C@H]3C(=O)N[C@@H](CCCN=C(N)N)C(=O)NCC(N)=O)NC(=O)[C@H](CC(N)=O)NC(=O)[C@H](C(C)C)NC(=O)[C@H](Cc3ccccc3)NC2=O)cc1 [listing 2 of 2 here]				0.4
CCCOc1ccc(C[C@@H]2NC(=O)CC3(CCCCC3)SSC[C@@H](C(=O)N3CCC[C@H]3C(=O)N[C@H](CCCN=C(N)N)C(=O)NCC(N)=O)NC(=O)[C@H](CC(N)=O)NC(=O)[C@H](C(C)C)NC(=O)[C@H](Cc3ccccc3)NC2=O)cc1 [listing 1 of 2 here]	14	214	13.8	
CCCOc1ccc(C[C@@H]2NC(=O)CC3(CCCCC3)SSC[C@@H](C(=O)N3CCC[C@H]3C(=O)N[C@H](CCCN=C(N)N)C(=O)NCC(N)=O)NC(=O)[C@H](CC(N)=O)NC(=O)[C@H](C(C)C)NC(=O)[C@H](Cc3ccccc3)NC2=O)cc1 [listing 2 of 2 here]				1.1
CCOc1ccc(C[C@@H]2NC(=O)CC3(CCCCC3)SSC[C@@H](C(=O)N3CCC[C@H]3C(=O)N[C@@H](CCCN=C(N)N)C(=O)NCC(N)=O)NC(=O)[C@H](CC(N)=O)NC(=O)[C@H](C(C)C)NC(=O)[C@H](Cc3ccccc3)NC2=O)cc1 (Y(Et)FVNCPRG-NH2; linker N-5 via X1) [listing 1 of 2 here]	1.9	26.9	6.92	
CCOc1ccc(C[C@@H]2NC(=O)CC3(CCCCC3)SSC[C@@H](C(=O)N3CCC[C@H]3C(=O)N[C@@H](CCCN=C(N)N)C(=O)NCC(N)=O)NC(=O)[C@H](CC(N)=O)NC(=O)[C@H](C(C)C)NC(=O)[C@H](Cc3ccccc3)NC2=O)cc1 (Y(Et)FVNCPRG-NH2; linker N-5 via X1) [listing 2 of 2 here]				0.49
CCOc1ccc(C[C@@H]2NC(=O)CC3(CCCCC3)SSC[C@@H](C(=O)N3CCC[C@H]3C(=O)N[C@H](CCCN=C(N)N)C(=O)NCC(N)=O)NC(=O)[C@H](CC(N)=O)NC(=O)[C@H](C(C)C)NC(=O)[C@H](Cc3ccccc3)NC2=O)cc1 (Y(Et)FVNCP[dR]G-NH2; linker N-5 via X1) [listing 1 of 2 here]	5.7	79.4		
CCOc1ccc(C[C@@H]2NC(=O)CC3(CCCCC3)SSC[C@@H](C(=O)N3CCC[C@H]3C(=O)N[C@H](CCCN=C(N)N)C(=O)NCC(N)=O)NC(=O)[C@H](CC(N)=O)NC(=O)[C@H](C(C)C)NC(=O)[C@H](Cc3ccccc3)NC2=O)cc1 (Y(Et)FVNCP[dR]G-NH2; linker N-5 via X1) [listing 2 of 2 here]				0.34
COc1ccc(C[C@@H]2NC(=O)CC3(CCCCC3)SSC[C@@H](C(=O)N3CCC[C@H]3C(=O)N[C@@H](CCCN=C(N)N)C(=O)NCC(N)=O)NC(=O)[C@H](CC(N)=O)NC(=O)[C@H](C(C)C)NC(=O)[C@H](Cc3ccccc3)NC2=O)cc1 (Y(Me)FVNCPRG-NH2; linker N-5 via X1) [listing 1 of 2 here]	3.1	44.7	4.79	
COc1ccc(C[C@@H]2NC(=O)CC3(CCCCC3)SSC[C@@H](C(=O)N3CCC[C@H]3C(=O)N[C@@H](CCCN=C(N)N)C(=O)NCC(N)=O)NC(=O)[C@H](CC(N)=O)NC(=O)[C@H](C(C)C)NC(=O)[C@H](Cc3ccccc3)NC2=O)cc1 (Y(Me)FVNCPRG-NH2; linker N-5 via X1) [listing 2 of 2 here]				0.29
COc1ccc(C[C@@H]2NC(=O)CC3(CCCCC3)SSC[C@@H](C(=O)N3CCC[C@H]3C(=O)N[C@H](CCCN=C(N)N)C(=O)NCC(N)=O)NC(=O)[C@H](CC(N)=O)NC(=O)[C@H](C(C)C)NC(=O)[C@H](Cc3ccccc3)NC2=O)cc1 (Y(Me)FVNCP[dR]G-NH2; linker N-5 via X1) [listing 1 of 2 here]	15	209	3.63	
COc1ccc(C[C@@H]2NC(=O)CC3(CCCCC3)SSC[C@@H](C(=O)N3CCC[C@H]3C(=O)N[C@H](CCCN=C(N)N)C(=O)NCC(N)=O)NC(=O)[C@H](CC(N)=O)NC(=O)[C@H](C(C)C)NC(=O)[C@H](Cc3ccccc3)NC2=O)cc1 (Y(Me)FVNCP[dR]G-NH2; linker N-5 via X1) [listing 2 of 2 here]				0.28
CC(C)Oc1ccc(C[C@@H]2NC(=O)CC3(CCCCC3)SSC[C@@H](C(=O)N3CCC[C@H]3C(=O)N[C@@H](CCCN=C(N)N)C(=O)NCC(N)=O)NC(=O)[C@H](CC(N)=O)NC(=O)[C@H](C(C)C)NC(=O)[C@H](Cc3ccccc3)NC2=O)cc1 (Y(iPr)FVNCPRG-NH2; linker N-5 via X1) [listing 1 of 2 here]	3.6	47.9	4.37	
CC(C)Oc1ccc(C[C@@H]2NC(=O)CC3(CCCCC3)SSC[C@@H](C(=O)N3CCC[C@H]3C(=O)N[C@@H](CCCN=C(N)N)C(=O)NCC(N)=O)NC(=O)[C@H](CC(N)=O)NC(=O)[C@H](C(C)C)NC(=O)[C@H](Cc3ccccc3)NC2=O)cc1 (Y(iPr)FVNCPRG-NH2; linker N-5 via X1) [listing 2 of 2 here]				0.31
CC(C)Oc1ccc(C[C@@H]2NC(=O)CC3(CCCCC3)SSC[C@@H](C(=O)N3CCC[C@H]3C(=O)N[C@H](CCCN=C(N)N)C(=O)NCC(N)=O)NC(=O)[C@H](CC(N)=O)NC(=O)[C@H](C(C)C)NC(=O)[C@H](Cc3ccccc3)NC2=O)cc1 (Y(iPr)FVNCP[dR]G-NH2; linker N-5 via X1) [listing 1 of 2 here]	8.5	132	3.89	
CC(C)Oc1ccc(C[C@@H]2NC(=O)CC3(CCCCC3)SSC[C@@H](C(=O)N3CCC[C@H]3C(=O)N[C@H](CCCN=C(N)N)C(=O)NCC(N)=O)NC(=O)[C@H](CC(N)=O)NC(=O)[C@H](C(C)C)NC(=O)[C@H](Cc3ccccc3)NC2=O)cc1 (Y(iPr)FVNCP[dR]G-NH2; linker N-5 via X1) [listing 2 of 2 here]				0.28
